The values below come from patent US12521439B2, “Methods and materials for modulating Nrf2 pathway” (The General Hospital Corporation, priority 2019, dated 2026).

Usually Tmax stands for the time at which the peak concentration occurs. In general, half-life refers to the time in which the quantity being followed falls by half.

The nature of data set [1]: Pharmacokinetics after single i.p. administration. The data set is classed as in vivo, male Swiss Albino mice. The method, then:
Pharmacokinetics studies: These studies were performed by SAI Lifesciences using Male Swiss Albino mice. OBT was resuspended in a solution formulation of 10% DMA, 10% EtOH, 10% PEG400 in 70% of (2-hydroxypropyl)-[…] (HPβCD). OBT was administered by intraperitoneal (i.p.) injection at 7.5 mg/kg. Blood samples were collected from mice, at 0, 0.08, 0.25, 0.5, 1, 2, 4, 8 and 24 hr. Immediately after blood collection, plasma was harvested by centrifugation and stored until analysis. After collection of blood, brain samples were collected from each mouse at 0.5, 4 and 24 h. Tissue samples were homogenized using ice-cold phosphate buffer saline (pH7.4) and homogenates were stored until analysis. Total homogenate volume was three times the tissue weight. Plasma samples were quantified by LC-MS/MS method (LLOQ=1.00 ng/mL) for plasma and brain.

The next data set concerns CT2A mouse gliomas. Nature of the data set: Immunophenotyping of tumor-infiltrating immune cells (flow cytometry). The data set is classed as in vivo, C57BL/6 mice. As for the experimental part:
The effect of OBT on glioma immunomodulation in vivo was next evaluated. 50,000 CT2A cells expressing Fluc were implanted in the striatum of immunocompetent C57BL/6 mice. Two weeks post-injection, mice were i.p. injected with OBT (7.5 mg/kg body weight/day) or PBS/DMSO control, over 4 days (n=6/group). Mice were sacrificed, brains removed, and tumor tissues dissected out and homogenized. […] OBT increased intratumoral CD8+ cytotoxic T cells with higher levels of both Ki-67 and granzyme B (markers for increased activation of effector cells, abrogation of suppressive immune cells) and decreased CD4+ regulatory T cells (Treg; CD25^+Foxp3^+), typically used by the tumour to escape the immune system, leading to an increase in the ratio of CD8+ T cells over Tregs (FIG. 25B-D). […] CTLA-4, PD-1, Lag-3 and Tim-3 levels (hallmark for exhausted and anergic T cells) were not changed on any of these cells (FIG. 25B; only showing PD-1).
(Flow cytometry measures light scatter and fluorescence of single cells or particles in a stream.)

The target in another data set is Keap1 (Homo sapiens, UniProt Q14145). Briefly: Differential alkylation mass spectrometry, Keap1. The data set is classed as binding.
Keap1, sequence (Q14145 whole entry, species assumed): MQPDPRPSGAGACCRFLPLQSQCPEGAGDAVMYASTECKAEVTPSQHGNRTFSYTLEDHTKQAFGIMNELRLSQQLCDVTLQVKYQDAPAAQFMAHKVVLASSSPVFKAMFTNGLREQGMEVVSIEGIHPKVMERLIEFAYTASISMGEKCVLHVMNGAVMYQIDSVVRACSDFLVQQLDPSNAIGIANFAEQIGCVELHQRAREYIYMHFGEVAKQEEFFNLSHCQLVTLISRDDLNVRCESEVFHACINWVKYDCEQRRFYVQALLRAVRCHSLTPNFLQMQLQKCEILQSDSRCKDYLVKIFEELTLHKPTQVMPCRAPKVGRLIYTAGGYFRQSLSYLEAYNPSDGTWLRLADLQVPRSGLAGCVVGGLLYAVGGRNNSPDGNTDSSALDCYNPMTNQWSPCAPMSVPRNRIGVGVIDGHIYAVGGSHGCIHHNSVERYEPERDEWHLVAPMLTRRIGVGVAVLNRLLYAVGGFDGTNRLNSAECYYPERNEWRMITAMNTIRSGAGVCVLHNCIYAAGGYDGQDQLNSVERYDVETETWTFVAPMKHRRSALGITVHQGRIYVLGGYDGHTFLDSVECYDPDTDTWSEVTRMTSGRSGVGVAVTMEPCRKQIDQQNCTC
The next data set concerns HO1, NQO1, TXNRD2 mRNA. Briefly: qRT-PCR of Nrf2 target genes in cancer cells. Type of data set: cell-based, human. As for the experimental part: Real-time qRT-PCR: Total RNA isolation from cultured cells was performed using RNeasy kit (Qiagen), followed by reverse transcription with OneScript cDNA synthesis Kit (ABM). mRNA expression of different genes was then analyzed by quantitative PCR using PowerUp SYBR Green Master Mix (Applied Biosystems) and performed using a QuantStudio3 real-time PCR system (Applied Biosystems). Primer sequences for HO1, NQO1, TXNRD2 were obtained from the MGH primer bank and were as follows: HO1 Forward, 5′-[…]-3′ and reverse 5′-[…]-3′; NQO1 Forward 5′-[…]-3′ and reverse 5′-[…]-3′ and Txnrd2 forward 5′-[…]-3 and reverse 5′-[…]. Oligonucleotides were synthesized by the CCIB DNA Core Facility at Massachusetts General Hospital. Expression of human GAPDH was used to mRNA normalization and relative mRNA expression was calculated using the comparative Ct method.
Background: Real-time PCR tracks product formation cycle by cycle.

The subject of a further data set is MDA-MB231 cells. Briefly: Cell viability (CellTiter-Glo), MDA-MB231. The settings on record: co-treatment MLN4924 (1 μM), three days. Type of data set: cell-based, human. As for the experimental part:
Cell culture: MDA-MB-231 and U87 (U87-MG) cells were obtained from the American Type Culture Collection (ATCC). 293T human embryonic kidney fibroblasts were provided by Dr. Xandra Breakefield (Massachusetts General Hospital). All three cell lines were grown in Dulbecco's modified Eagle medium supplemented with 10% fetal bovine serum (Gemini Bio-products), 100 U penicillin, and 0.1 mg/mL streptomycin (Sigma). All cells were maintained at 37° C. in a humidified 5% CO2 incubator. GSCs were obtained from tumor tissues of GBM patients following surgical resection, under approval from the corresponding Institutional Review Board. These cells have been previously characterized (ref. 37-39) and were maintained in culture as neurospheres in Neurobasal medium (Gibco) supplemented with heparin (2 μg/mL; Sigma) and recombinant EGF (20 ng/mL) and bFGF-2 (10 ng/mL; Peprotech). Human Astrocytes were obtained from ScienCell and cultured in Astrocytes Medium (ScienCell)
Cell viability: Cells were plated in 96-well plates and treated with the corresponding compounds. Cell viability was measured by adding 25 μl/well of CellTiter-Glo (Promega) followed by 10 minutes incubation and transfer to a white 96-well plate. Bioluminescence was quantified using Synergy HTX multimode reader (Biotek).

For `COC1=CC(=O)C(O)=C/C1=C/C=C/c1ccccc1` [OBT, (Z)-2-hydroxy-5-methoxy-4-((E)-3-phenylallylidene)cyclohexa-2,5-dien-1-one], in data set [1] (7.5 mg/kg i.p.), the “Vss relative to normal volume of total body water (0.7 L/kg)” value came out at 3 fold and the systemic plasma clearance result is listed as “high”. Also, the “time up to which plasma concentrations were detected” value in data set [1] (7.5 mg/kg i.p., LC-MS/MS) is “up to 24 hrs”. The blood-brain barrier penetration entry in data set [1] (intact BBB) was “efficiently penetrates”. Besides, in data set [1] (male, Swiss Albino, mouse, brain, ip, 7.5 mg/kg, 0.5 hr after single i.p. dose, read-out: brain-to-plasma ratio), the Kp at 0.5 h came to 0.27. Further, in data set [1] (male, Swiss Albino, mouse, brain, ip, 7.5 mg/kg, 4 hrs after single i.p. dose, read-out: brain-to-plasma ratio), the Kp at 4 h was determined as 0.5. In addition, the Tmax in data set [1] (male, Swiss Albino, mouse, ip, plasma, 7.5 mg/kg i.p.) is 30 min. In addition, the half-life in data set [1] (male, Swiss Albino, mouse, plasma, ip, 7.5 mg/kg i.p., read-out: terminal plasma half-life) worked out at 24 min. In the data set on CT2A mouse gliomas (7.5 mg/kg/day i.p. over 4 days), the “CD4+ regulatory T cells (Treg; CD25+Foxp3+)” value is listed as “decreased”; the “Ki-67 and granzyme B in CD8+ T cells” value is on record as “higher levels”; the dendritic cells entry is given as “significant increase”; the “intratumoral CD8+ cytotoxic T cells” value is “increased”. Also, in the data set with CT2A mouse gliomas (7.5 mg/kg/day i.p. over 4 days), the “levels of CD4+ T cells” value is “did not change”; the “number of microglia and macrophages” value is reported as “not changed”; the “ratio of CD8+ T cells over Tregs” value is “increase”. The “CTLA-4, PD-1, Lag-3 and Tim-3 levels” value in the data set with CT2A mouse gliomas (T cells) is “not changed”. In the data set on CT2A mouse gliomas (on all three cell types), the CD47 entry is reported as “significantly downregulated”. Moreover, the PD-L1 result in the data set with CT2A mouse gliomas (on microglia, dendritic cells, macrophages) was “did not have an effect”. The “reversibility of modification at Cys151 and Cys434” value on Keap1 (Cys151 BTB domain, Cys434 Kelch domain) is “partially reversible”. On Keap1 (differential alkylation), the “covalent binding to cysteine sites of Keap1” value was “bind covalently to all identified cysteine sites”. For the same molecule, the “NQO1 and TXNRD2 mRNA” value with HO1, NQO1, TXNRD2 mRNA (U87 and MDA-MB-231 cells) is “upregulated”. In addition, in the data set on HO1, NQO1, TXNRD2 mRNA (different cancer cells, 8 hours, normalized to GAPDH), the “HO1 mRNA expression” value is reported as “strong increase”. The “cell death with neddylation inhibitor MLN4924” value in the data set on MDA-MB231 cells is recorded as “protection against cell death”.
